Series [1] is described as follows: Half life in human liver S9 fraction by UPLC-UV-PAD method in presence of NADPH. The series is classed as ADME, subcellular.
A short description of series [2]: Half life in rat liver S9 fraction by UPLC-UV-PAD method in presence of NADPH. The format is ADME, subcellular.
Series [3] in a line: Drug metabolism in human liver S9 fraction assessed as oxidative metabolism after 4 hrs by UPLC-UV-PAD method in presence of NADPH. The format is ADME, subcellular. The following applies: read-out: Drug metabolism.
A short description of series [4]: Drug metabolism in rat liver S9 fraction assessed as oxidative metabolism after 4 hrs by UPLC-UV-PAD method in presence of NADPH. The format is ADME, subcellular. Particulars: read-out: Drug metabolism.
A short description of series [5]: Drug metabolism in human liver S9 fraction assessed as non-oxidative metabolism after 4 hrs by UPLC-UV-PAD method. The format is ADME, subcellular. Particulars: read-out: Drug metabolism.
A short description of series [6]: Drug metabolism in rat liver S9 fraction assessed as non-oxidative metabolism after 4 hrs by UPLC-UV-PAD method. Particulars: read-out: Drug metabolism. The format is ADME, subcellular.
Series [7] in a line: Drug metabolism in dog plasma after 4 hrs by UPLC-UV/PAD method. The series is classed as ADME, cell-free, Canis lupus familiaris. Particulars: read-out: Drug metabolism.
The nature of series [8]: Drug metabolism in human plasma after 4 hrs by UPLC-UV/PAD method. The series is classed as ADME, cell-free. Particulars: read-out: Drug metabolism.
Series [9] is described as follows: Drug metabolism in rat plasma after 4 hrs by UPLC-UV/PAD method. The format is ADME, cell-free. Particulars: read-out: Drug metabolism.
Series [10] has as its system Blood. As to the kind of experiment: Metabolic stability in rat blood after 4 hrs by UPLC-UV/PAD method. The series is classed as ADME, tissue-based.
For series [11], the system named is Blood. As to the kind of experiment: Metabolic stability in mouse blood after 4 hrs by UPLC-UV/PAD method. The format is ADME, tissue-based.
Series [12] can be described thus: Solubility of the compound in physiological solution by UV spectrophotometric analysis. The series is classed as physicochemical.
The nature of series [13]: Solubility of the compound in phosphate buffer at pH 7.4 by UV spectrophotometric analysis. The series is classed as physicochemical.
A short description of series [14]: Solubility of the compound in water by UV spectrophotometric analysis. The series is classed as physicochemical.

Consider `CC(CCN1CCCCC1)c1ccc(-c2ccccc2)cc1.Cl` (racemic), for which the half-life (usually the time needed for the level to fall by half in the phase considered) worked out at 2.17 h in series [1] and 1.89 h in [2]. Further, the metabolised at 4 h stood at 69% in series [3]; 65% in series [4]; 30% in series [5]; 30% in series [6]; 25% in series [7]; 6% in series [8]. The metabolised at 4 h in [9] worked out at 6%. Besides, the Stability result with Blood [10] and in the series with Blood [11] was “Stable” in each case. Moreover, the solubility (usually the concentration that dissolves in the medium under given conditions) in series [12] was found to be 8 mg/mL; in series [13] it was 32 mg/mL; in series [14] it was 33 mg/mL.
